Our source for the IC50 values is patent publication US4450167A, “3-Quinoline carboxamides having anxiolytic activity” (Roussel Uclaf, priority 1981, dated 1984).

In this assay the target is benzodiazepine receptors. The experiment in a line: Affinity for benzodiazepine receptors (3H Diazepam displacement, rat cortex membranes). The assay is classed as binding. To be noted: rat brain cortex membranes, 3H Diazepam 10^-9 moles, 0° C., 30 minutes; read-out: CI50, concentration inhibiting by 50% the specific bonding of 3H diazepam. How it is done:
The test was inspired by Mohler et al [Science, No. 198 (1977), p. 849-851] in which the cortex was removed from the brains of male rats weighing an average of 150 g and homogenized at a ratio of 1 part by weight per 20 parts by volume of 0.32 M sucrose. The homogenized mixture was centrifuged at 1000 g for 10 minutes at 0° C. and the surnageant was centrifuged at 30,000 g for 20 minutes at 4° C. The culot was suspended in 20 volumes of Tris HCl 50 mM buffer with a pH of 7.4 and the suspension was centrifuged at 30,000 g for 20 minutes at 4° C. The resulting culot was suspended in 50 ml of Krebs Tris HCl buffered at a pH of 7.4 and 2 ml of the suspension was incubated at 0° C. for 30 minutes in the presence of ^3 H Diazepam at a concentration of 10^-9 moles with increasing concentration of the test product to determine the non-specificfixation with non-radioactive Diazepam at a concentration of 10^-6 moles.
The incubated suspensions were filtered through a Whatman GF/C filter and the filters were washed twice with 5 ml of Krebs Tris HCl buffer at a pH of 7.4 not 0° C. The radioactivity of the filters was measured by liquid scintillation and the affinity of the test product for benzodiazepine receptors was expressed in CI50 or the concentration inhibiting by 50% the specific bonding of ^3 H diapezam.
For the molecule `CCOc1ccc(NC(=O)c2cnc3ccccc3c2O)cc1` [Example 1, 4-hydroxy-N-(4-ethoxyphenyl)-3-quinoline-carboxamide], the IC50 amounted to 40 nM.

With `COc1ccc(NC(=O)c2cnc3ccccc3c2O)cc1` [Example 6, 4-hydroxy-N-(4-methoxyphenyl)-3-quinoline-carboxamide], the IC50 worked out at 7.5 nM.

As to `O=C(Nc1ccc(O)cc1)c1cnc2ccccc2c1O` [Example 7, 4-hydroxy-N-(4-hydroxyphenyl)-3-quinoline-carboxamide], the IC50 turned out to be 4.4 nM.

Regarding `CCNC(=O)c1cnc2ccccc2c1O` [Example 8, 4-hydroxy-N-ethyl-3-quinoline-carboxamide], the IC50 stood at 11 nM.

As to `CCCCNC(=O)c1cnc2ccccc2c1O` [Example 9, 4-hydroxy-N-butyl-3-quinoline-carboxamide], the IC50 came out at 3.7 nM.

For the molecule `CCCCCCNC(=O)c1cnc2ccccc2c1O` [Example 10, 4-hydroxy-N-n-hexyl-3-quinoline-carboxamide], the IC50 amounted to 6.7 nM.

Turning to `COc1ccccc1NC(=O)c1cnc2ccccc2c1O` [Example 13, 4-hydroxy-N-(2-methoxy-phenyl)-3-quinoline-carboxamide], the IC50 turned out to be 54 nM.

For the molecule `COc1cccc(NC(=O)c2cnc3ccccc3c2O)c1` [Example 16, 4-hydroxy-N-(3-methoxy-phenyl)-3-quinoline-carboxamide], the IC50 was found to be 6.6 nM.

On to `COc1ccc(NC(=O)c2c(C)nc3ccccc3c2O)cc1` [Example 23, 4-hydroxy-N-(4-methoxyphenyl)-2-methyl-3-quinoline-carboxamide], for which the IC50 is 23 nM.

As to `CCCNC(=O)c1cnc2ccccc2c1O` [Example 24, 4-hydroxy-N-propyl-3-quinoline-carboxamide], the IC50 amounted to 1.2 nM.
